These results are taken from ChEMBL document CHEMBL2046294, “Lipo-γ-AApeptides as a new class of potent and broad-spectrum antimicrobial agents” (J Med Chem, 2012).

Series [1] relates to Staphylococcus aureus. The series is described as follows: Antibacterial activity against methicillin-resistant Staphylococcus aureus ATCC 33592 after 24 hrs by broth micro-dilution method. Conditions: ATCC 33592, 24 h. Format: functional. (In general: Broth dilution looks for growth in wells or tubes with falling amounts of substance.)
In another series the test system is Escherichia coli. The series is described as follows: Antibacterial activity against Escherichia coli JM109 after 24 hrs by broth micro-dilution method. The format is functional. The following applies: JM109, 24 h.
In a further series the test system is Enterococcus faecalis. The series can be described thus: Antibacterial activity against vancomycin-resistant Enterococcus faecalis ATCC 700802 after 24 hrs by broth micro-dilution method. Format: functional. The following applies: ATCC 700802, 24 h.
Series [2] in a line: Selectivity ratio of HC50 for human RBC to MIC for methicillin-resistant Staphylococcus aureus ATCC 33592. The format is functional.
Series [3] in a line: Toxicity in human RBC assessed as hemolysis after 1 hr. Format: cell-based, Erythrocyte. The following applies: for HC10: erythrocyte, 1 h; for HC50 at 1 h: red blood cells.
A further series concerns Bacillus subtilis. The series can be described thus: Antibacterial activity against Bacillus subtilis BR151 after 24 hrs by broth micro-dilution method. The format is functional. Conditions: BR151, 24 h.
The test system of a further series is Pseudomonas aeruginosa. The series is described as follows: Antibacterial activity against multidrug-resistant Pseudomonas aeruginosa ATCC 27853 after 24 hrs by broth micro-dilution method. The following applies: ATCC 27853, 24 h. The format is functional.
In series [4] the test system is Staphylococcus epidermidis. The series can be described thus: Antibacterial activity against multidrug-resistant Staphylococcus epidermidis RP62A after 24 hrs by broth micro-dilution method. The format is functional.
In a further series the test system is Klebsiella pneumoniae. The series is described as follows: Antibacterial activity against Klebsiella pneumoniae ATCC 13383 after 24 hrs by broth micro-dilution method. Format: functional. Conditions: ATCC 13383, 24 h.
The next series concerns Candida albicans. The series is described as follows: Antifungal activity against Candida albicans ATCC 10231 after 48 hrs by broth micro-dilution method. The following applies: ATCC 10231, 48 h. The format is functional.
For series [5], the system named is Staphylococcus aureus. The series can be described thus: Antibacterial activity against methicillin-resistant Staphylococcus aureus ATCC 33592 assessed as lipid membrane depolarization after 10 mins by DiSC3-5 staining-based fluorescence analysis. Format: functional, organism-based.

Converted amounts (≈) assume the structure as drawn. The source made the active and inactive calls. The rule behind the calls is not given here. Some results are limits rather than exact numbers.

In general, MIC refers to the least concentration at which growth counts as inhibited. A high value points to a need for much substance. What is called HC50 is the concentration that lyses half of the red blood cells. Consider `CC(C)C[C@@H](CN(CC(=O)N[C@@H](CCCCN)CN(CC(N)=O)C(=O)CCc1ccccc1)C(=O)CCc1ccccc1)NC(=O)CN(C[C@H](CCCCN)NC(=O)CN(C[C@H](CCCCN)NC(=O)CN(C[C@H](CC(C)C)NC(=O)CN(C[C@H](CCCCN)NC(=O)CN(C[C@@H](N)CCCCN)C(=O)CCc1ccccc1)C(=O)CCc1ccccc1)C(=O)CCc1ccccc1)C(=O)CCc1ccccc1)C(=O)CCc1ccccc1`, for which the MIC against Staphylococcus aureus [1] is 5 µg/mL (≈ 2.37 µM); in the series on Escherichia coli it was 3 µg/mL (≈ 1.42 µM); in the series with Enterococcus faecalis, 5 µg/mL (≈ 2.37 µM); against Bacillus subtilis, 2 µg/mL (≈ 0.947 µM); in the series on Pseudomonas aeruginosa, > 50 µg/mL; in series [4], 5 µg/mL (≈ 2.37 µM). In addition, the MIC came out at 5 µg/mL (≈ 2.37 µM) in the series with Klebsiella pneumoniae and 8 µg/mL (≈ 3.79 µM) in the series with Candida albicans. In series [2], the Ratio was found to be 60. The HC10 in [3] turned out to be 75 µg/mL. In addition, in [3], the HC50 at 1 h was found to be 300 µg/mL.

Regarding `CCCCCCCCCCCCCCCC(=O)N[C@@H](C)CN(CC(=O)N[C@@H](C)CN(CC(=O)N[C@@H](CCC(=O)O)CN(CC(=O)N[C@@H](CCC(=O)O)CN(CC(=O)N[C@@H](CCC(=O)O)CN(CC(N)=O)C(=O)CC(=O)O)C(=O)CC(=O)O)C(=O)CC(=O)O)C(C)=O)C(C)=O`, the MIC (against Staphylococcus aureus [1]; in the series on Escherichia coli; in the series with Enterococcus faecalis; against Bacillus subtilis; against Pseudomonas aeruginosa; in [4]) was > 100 µg/mL in each case. For the same compound, the MIC against Klebsiella pneumoniae and against Candida albicans was > 100 µg/mL throughout. The HC10 in series [3] is 250 µg/mL. Also, in series [3], the HC50 at 1 h was > 500 µg/mL.

Consider `CCCCCCCC/C=C\CCCCCCCC(=O)N[C@@H](CCCCN)C(=O)N[C@@H](CCCCN)CN(CC(N)=O)C(=O)CCCN`, for which the MIC against Staphylococcus aureus [1] amounted to 5 µg/mL (≈ 7.51 µM); against Escherichia coli it was 10 µg/mL (≈ 15 µM); against Enterococcus faecalis it was 2.5 µg/mL (≈ 3.75 µM); in the series with Bacillus subtilis, 2 µg/mL (≈ 3 µM); against Pseudomonas aeruginosa, 15 µg/mL (≈ 22.5 µM); in series [4], 2 µg/mL (≈ 3 µM). In addition, the values for the MIC against Klebsiella pneumoniae and against Candida albicans were 40 µg/mL (≈ 60.1 µM) and 5 µg/mL (≈ 7.51 µM), respectively. Besides, the result in the series on Staphylococcus aureus [5] was Active. Moreover, the Ratio in series [2] is > 100. Besides, the HC10 in [3] amounted to 80 µg/mL. Further, the HC50 at 1 h in series [3] was > 500 µg/mL.

As to `CCCCCCCCCCCCCCCC(=O)N[C@@H](CCCCN)CN(CC(=O)N[C@@H](CCCCN)CN(CC(N)=O)C(=O)CCCN)C(=O)CCCN`, the MIC worked out at 5 µg/mL (≈ 6.51 µM) in the series on Staphylococcus aureus [1]; 30 µg/mL (≈ 39.1 µM) against Escherichia coli; 8 µg/mL (≈ 10.4 µM) against Enterococcus faecalis; 1.5 µg/mL (≈ 1.95 µM) with Bacillus subtilis; 20 µg/mL (≈ 26 µM) against Pseudomonas aeruginosa; 2.5 µg/mL (≈ 3.25 µM) in series [4]. Further, the MIC stood at 20 µg/mL (≈ 26 µM) with Klebsiella pneumoniae and 2 µg/mL (≈ 2.6 µM) in the series with Candida albicans. In the series with Staphylococcus aureus [5], the result was Active. Further, the Ratio in series [2] amounted to 60. Besides, in [3], the HC10 came out at 40 µg/mL. In addition, the HC50 at 1 h in series [3] is 300 µg/mL.

For `CCCCCCCCCCCC(=O)N[C@@H](CCCCN)CN(CC(N)=O)C(=O)CCCN`, the MIC (in the series with Staphylococcus aureus [1]; against Escherichia coli; against Enterococcus faecalis; against Bacillus subtilis; with Pseudomonas aeruginosa; in series [4]) was > 50 µg/mL throughout. Moreover, the MIC against Klebsiella pneumoniae and with Candida albicans was > 50 µg/mL each time. Besides, in series [3], the HC10 is 400 µg/mL. In addition, the HC50 at 1 h in series [3] is > 500 µg/mL.

For `CCCCCCCCCCCCCCCC(=O)N[C@@H](C)CN(CC(=O)N[C@@H](C)CN(CC(=O)N[C@@H](CCCCN)CN(CC(=O)N[C@@H](CCCCN)CN(CC(=O)N[C@@H](CCCCN)CN(CC(N)=O)C(=O)CCCN)C(=O)CCCN)C(=O)CCCN)C(C)=O)C(C)=O`, the MIC was determined as 10 µg/mL (≈ 7.48 µM) against Staphylococcus aureus [1]; 2.5 µg/mL (≈ 1.87 µM) in the series on Escherichia coli; 10 µg/mL (≈ 7.48 µM) in the series with Enterococcus faecalis; 2.5 µg/mL (≈ 1.87 µM) with Bacillus subtilis; 15 µg/mL (≈ 11.2 µM) in the series with Pseudomonas aeruginosa; 10 µg/mL (≈ 7.48 µM) in series [4]. Besides, the figures for the MIC in the series with Klebsiella pneumoniae and in the series on Candida albicans were 15 µg/mL (≈ 11.2 µM) and 7.5 µg/mL (≈ 5.61 µM), respectively. For the same compound, the result in the series on Staphylococcus aureus [5] was Active. For the same compound, the Ratio in series [2] is > 50. Further, the HC10 in [3] was 200 µg/mL. Also, in series [3], the HC50 at 1 h was > 500 µg/mL.

In the case of `CCCCCCCC/C=C\CCCCCCCC(=O)N[C@@H](CCCCN)CN(CC(=O)N[C@@H](CCCCN)CN(CC(N)=O)C(=O)CCCN)C(=O)CCCN`, the MIC in the series on Staphylococcus aureus [1] came to 5 µg/mL (≈ 6.3 µM); against Escherichia coli, 10 µg/mL (≈ 12.6 µM); in the series on Enterococcus faecalis it was 5 µg/mL (≈ 6.3 µM); against Bacillus subtilis, 2.5 µg/mL (≈ 3.15 µM); in the series with Pseudomonas aeruginosa it was 3 µg/mL (≈ 3.78 µM); in [4] it was 4 µg/mL (≈ 5.04 µM). In addition, the MIC came out at 15 µg/mL (≈ 18.9 µM) with Klebsiella pneumoniae and 2 µg/mL (≈ 2.52 µM) against Candida albicans. For the same compound, in the series on Staphylococcus aureus [5], the result was Active. Also, the Ratio in series [2] was > 100. Further, the HC10 in [3] came to 250 µg/mL. In addition, the HC50 at 1 h in series [3] is > 500 µg/mL.

In the case of `CCCCCCCC/C=C\CCCCCCCC(=O)N[C@@H](CCCCN)CN(CC(N)=O)C(=O)CCCN`, the MIC against Staphylococcus aureus [1] is 4 µg/mL (≈ 7.44 µM); with Escherichia coli, 2.5 µg/mL (≈ 4.65 µM); in the series on Enterococcus faecalis, 2.5 µg/mL (≈ 4.65 µM); with Bacillus subtilis, 2 µg/mL (≈ 3.72 µM); with Pseudomonas aeruginosa, 3 µg/mL (≈ 5.58 µM); in series [4] it was 2 µg/mL (≈ 3.72 µM). The results for the MIC against Klebsiella pneumoniae and against Candida albicans were 35 µg/mL (≈ 65.1 µM) and 2 µg/mL (≈ 3.72 µM), respectively. For the same compound, the result in the series on Staphylococcus aureus [5] was Active. In addition, in [2], the Ratio stood at 25. Further, the HC10 in [3] stood at 40 µg/mL. Moreover, the HC50 at 1 h in [3] was determined as 100 µg/mL.

Take `CC(=O)N(CC(=O)N[C@@H](C)CN(CC(=O)N[C@@H](CC(C)C)CN(CC(=O)N[C@@H](CC(C)C)CN(CC(=O)N[C@@H](CC(C)C)CN(CC(N)=O)C(=O)CCCN)C(=O)CCCN)C(=O)CCCN)C(C)=O)C[C@H](C)N`: the MIC (in the series on Staphylococcus aureus [1]; with Escherichia coli; in the series with Enterococcus faecalis; in the series with Bacillus subtilis; in the series on Pseudomonas aeruginosa; in series [4]) was > 100 µg/mL in each case. The MIC against Klebsiella pneumoniae and in the series on Candida albicans was > 100 µg/mL each time. Moreover, the HC10 in [3] came out at 120 µg/mL. In addition, the HC50 at 1 h in [3] is > 500 µg/mL.

For the compound `CCCCCCCCCCCCCCCC(=O)N[C@@H](CCCCN)CN(CC(N)=O)C(=O)CCCN`, the MIC came to 2.5 µg/mL (≈ 4.88 µM) in the series with Staphylococcus aureus [1]; 2.5 µg/mL (≈ 4.88 µM) against Escherichia coli; 2.5 µg/mL (≈ 4.88 µM) against Enterococcus faecalis; 1.5 µg/mL (≈ 2.93 µM) in the series on Bacillus subtilis; 10 µg/mL (≈ 19.5 µM) against Pseudomonas aeruginosa; 2 µg/mL (≈ 3.91 µM) in series [4]. Moreover, the results for the MIC against Klebsiella pneumoniae and against Candida albicans were 35 µg/mL (≈ 68.4 µM) and 2 µg/mL (≈ 3.91 µM), respectively. Also, in the series on Staphylococcus aureus [5], the outcome was Active. Moreover, in [2], the Ratio came out at 16. Also, the HC10 in series [3] is 25 µg/mL. Also, in [3], the HC50 at 1 h turned out to be 40 µg/mL.

With `CCCCCCCCCCCCCCCC(=O)N[C@@H](C)CN(CC(=O)N[C@@H](C)CN(CC(=O)N[C@@H](Cc1ccccc1)CN(CC(=O)N[C@@H](Cc1ccccc1)CN(CC(=O)N[C@@H](Cc1ccccc1)CN(CC(N)=O)C(=O)CC(=O)O)C(=O)CC(=O)O)C(=O)CC(=O)O)C(C)=O)C(C)=O`, the MIC (against Staphylococcus aureus [1]; in the series on Escherichia coli; in the series on Enterococcus faecalis; in the series with Bacillus subtilis; against Pseudomonas aeruginosa; in [4]) was > 100 µg/mL each time. In addition, the MIC against Klebsiella pneumoniae and against Candida albicans was > 100 µg/mL each time. Further, the HC10 in [3] amounted to 200 µg/mL. Moreover, the HC50 at 1 h in series [3] was > 500 µg/mL.
